Patent US20220202906A1, “VASOACTIVE INTESTINAL PEPTIDE (VIP) FOR USE IN THE TREATMENT OF DRUG-INDUCED PNEUMONITIS” (ADVITA L[…], priority 2019, published 2022)

Tests used:
[1] = Aerosol characterisation with M-Neb dose+ mesh nebulizer MN-300/8 and COPLEY next generation impactor (NGI); assay type: physicochemical; details: VIP dissolved in 0.9% NaCl
Source text: Using the M-Neb® dose+ mesh nebulizer MN-300/8 and the respective mouthpiece, VIP has been tested with the COPLEY next generation impactor (NGI). The mass median aerodynamic diameter (MMD) of VIP dissolved in 0.9% NaCl was 3.3-3.5 μm per emitted particle.

[2] = Off-label inhaled VIP therapy in a patient with checkpoint inhibitor-induced pneumonitis; assay type: in vivo, human
Procedure: A patient, who was treated with checkpoint inhibitors, developed CIP and steroid treatment led to insufficient control. Because of missing other approved therapeutic options the patient was treated off-label with inhaled VIP therapy initiated at a dose of 4×70 μg/ml per day dosage (280 μg per day with overnight break).

[3] = human, in vivo
[4] = Blood level of VIP after aerosol administration; assay type: in vivo
Source text: This is especially unexpected as the treatment with aerosols is normally regarded to be only efficient if inhaled noxes are the cause of the pulmonary defects. In the context of the present invention, a systemic substance is, however, the cause of drug-induced pneumonitis (such as CIP) and therefore topic administration is not expected to have any great effect.

[5] = sarcoidosis, inhaled aerosolized VIP; cited from earlier work
[6] = 50 μg four times daily by inhalation, 28 days; cited from earlier work
[7] = CIP patient, inhaled VIP 280 μg per day

CC[C@H](C)[C@H](NC(=O)[C@H](CO)NC(=O)[C@H](CC(N)=O)NC(=O)[C@H](CC(C)C)NC(=O)[C@H](Cc1ccc(O)cc1)NC(=O)[C@H](CCCCN)NC(=O)[C@H](CCCCN)NC(=O)[C@@H](NC(=O)[C@H](C)NC(=O)[C@H](CCSC)NC(=O)[C@H](CCC(N)=O)NC(=O)[C@H](CCCCN)NC(=O)[C@H](CCCNC(=N)N)NC(=O)[C@H](CC(C)C)NC(=O)[C@H](CCCNC(=N)N)NC(=O)[C@@H](NC(=O)[C@H](Cc1ccc(O)cc1)NC(=O)[C@H](CC(N)=O)NC(=O)[C@H](CC(=O)O)NC(=O)[C@@H](NC(=O)[C@H](Cc1ccccc1)NC(=O)[C@@H](NC(=O)[C@H](C)NC(=O)[C@H](CC(=O)O)NC(=O)[C@H](CO)NC(=O)[C@@H](N)Cc1c[nH]cn1)C(C)C)[C@@H](C)O)[C@@H](C)O)C(C)C)C(=O)N[C@@H](CC(C)C)C(=O)N[C@@H](CC(N)=O)C(N)=O [VIP, Vasoactive intestinal peptide]
dose delivered at the mouthpiece ([1]; M-Neb dose+ MN-300/8): 90.2 % of the tested dosages | particles with a diameter ([1]; M-Neb dose+ MN-300/8): 85.7% | mass median aerodynamic diameter (MMD) per emitted particle ([1]; M-Neb dose+ MN-300/8 with mouthpiece): 3.3-3.5 μm | alveolar inflammation as measured by bronchoalveolar lavage [2, 7]: dampened by an increase of regulatory T-cell | patient's general health [2, 7]: ameliorated | radiological alterations (e.g. consolidations) [2, 7]: diminished | lung function ([2]; CIP patient, inhaled VIP 4×70 μg per day (280 μg per day)): normalized within six months of treatment | side effects on the patient's immune system ([2]; VIP inhalation in CIP): does not suffer from severe side effects on the patient's immune system | clinical outcome [3]: clinical amelioration | blood level of VIP [4]: does not lead to an elevated blood level of VIP | TNF-release [5]: decrease of TNF-release | regulatory T-cells [5]: increase of regulatory T-cells | symptoms [5]: symptomatic relief | tolerability / adverse events [6]: well tolerated without serious adverse events
